Test results from publication PMC11695783 (Frontiers in Pharmacology, 2024).

System: Mycoplasma pneumoniae strain M129 (ATCC 29342)
Assay: Time-kill curves
Format: cell-based
Set-up: M. pneumoniae count in time-kill curve: unit not given here
Procedure: Mycoplasma pneumoniae strain M129 (ATCC 29342) was obtained from American Type Culture Collection (Manassas, VA, United States) and cultured at 37°C in the presence of 5% CO2 in the modified SP-4 liquid medium (pH 7.4) containing 2.1% (w/v) CM1166 mycoplasma broth base medium (Oxoid, Hants, United Kingdom), 20% (v/v) fetal bovine serum (FBS, Bioexplorer, CO, United States), 0.4% yeast extract (Oxoid), 0.55% (w/v) CMRL 1066 w/L-glutamine culture media powder (MyBioSource, San Diego, CA, United States), 1% D-glucose (Macklin) and 0.004% phenol red (Macklin). […] The solid medium is based on the above formula with the addition of 1% agar, and the characteristic fried egg-like colonies were used for experiments following incubation for 7 d on plates.
The tubes were incubated at 37°C in 5% CO2 for 72 h, and 200 µL of the culture was removed every 12 h for 10-fold serial dilutions. The diluted cultures were plated on plates for further culture and counted after 7 d. The experiment was repeated three times.

In the case of `O=C(O)c1cn(C2CC2)c2cc(N3CCNCC3)c(F)cc2c1=O` [ciprofloxacin], the “M. pneumoniae count in time-kill curve” value (1×MIC, time 0) is reported as 7.07, the “M. pneumoniae count in time-kill curve” value (1×MIC, time 12) is reported as 6.346 and the “M. pneumoniae count in time-kill curve” value (1×MIC, time 24) is reported as 6.462. The “M. pneumoniae count in time-kill curve” value (1×MIC, time 36) was 6.137, the “M. pneumoniae count in time-kill curve” value (1×MIC, time 48) was 6.414 and the “M. pneumoniae count in time-kill curve” value (1×MIC, time 60) was 6.605. The “M. pneumoniae count in time-kill curve” value (1×MIC, time 72) was 5.901, the “M. pneumoniae count in time-kill curve” value (2×MIC, time 0) was 7.07 and the “M. pneumoniae count in time-kill curve” value (2×MIC, time 12) was 6.0302. For the same compound, the “M. pneumoniae count in time-kill curve” value (2×MIC, time 24) was 6.128, the “M. pneumoniae count in time-kill curve” value (2×MIC, time 36) was 5.661 and the “M. pneumoniae count in time-kill curve” value (2×MIC, time 48) was 5.8. The “M. pneumoniae count in time-kill curve” value (2×MIC, time 60) was 5.6841, the “M. pneumoniae count in time-kill curve” value (2×MIC, time 72) was 4.597 and the “M. pneumoniae count in time-kill curve” value (4×MIC, time 0) was 7.07. For the same compound, the “M. pneumoniae count in time-kill curve” value (4×MIC, time 12) was 5.551, the “M. pneumoniae count in time-kill curve” value (4×MIC, time 24) was 5.334 and the “M. pneumoniae count in time-kill curve” value (4×MIC, time 36) was 5.292. The “M. pneumoniae count in time-kill curve” value (4×MIC, time 48) was 5.137, the “M. pneumoniae count in time-kill curve” value (4×MIC, time 60) was 5.179 and the “M. pneumoniae count in time-kill curve” value (4×MIC, time 72) was 4.3324. For the same compound, the “M. pneumoniae count in time-kill curve” value (8×MIC, time 0) was 7.07, the “M. pneumoniae count in time-kill curve” value (8×MIC, time 12) was 5.507 and the “M. pneumoniae count in time-kill curve” value (8×MIC, time 24) was 4.574. For the same compound, the “M. pneumoniae count in time-kill curve” value (8×MIC, time 36) was 4.144, the “M. pneumoniae count in time-kill curve” value (8×MIC, time 48) was 4.238 and the “M. pneumoniae count in time-kill curve” value (8×MIC, time 60) was 3.8395. The “M. pneumoniae count in time-kill curve” value (8×MIC, time 72) was 3.628, the “M. pneumoniae count in time-kill curve” value (16×MIC, time 0) was 7.07 and the “M. pneumoniae count in time-kill curve” value (16×MIC, time 12) was 5.235. The “M. pneumoniae count in time-kill curve” value (16×MIC, time 24) was 4.279, the “M. pneumoniae count in time-kill curve” value (16×MIC, time 36) was 3.946 and the “M. pneumoniae count in time-kill curve” value (16×MIC, time 48) was 3.861. For the same compound, the “M. pneumoniae count in time-kill curve” value (16×MIC, time 60) was 3.824, the “M. pneumoniae count in time-kill curve” value (16×MIC, time 72) was 3.354 and the “M. pneumoniae count in time-kill curve” value (32×MIC, time 0) was 7.07. For the same compound, the “M. pneumoniae count in time-kill curve” value (32×MIC, time 12) was 4.952, the “M. pneumoniae count in time-kill curve” value (32×MIC, time 24) was 4.119 and the “M. pneumoniae count in time-kill curve” value (32×MIC, time 36) was 3.694. The “M. pneumoniae count in time-kill curve” value (32×MIC, time 48) was 3.873, the “M. pneumoniae count in time-kill curve” value (32×MIC, time 60) was 3.5568 and the “M. pneumoniae count in time-kill curve” value (32×MIC, time 72) was 3.233. The “M. pneumoniae count in time-kill curve” value (64×MIC, time 0) was 7.07, the “M. pneumoniae count in time-kill curve” value (64×MIC, time 12) was 5.252 and the “M. pneumoniae count in time-kill curve” value (64×MIC, time 24) was 3.933. For the same compound, the “M. pneumoniae count in time-kill curve” value (64×MIC, time 36) was 3.756, the “M. pneumoniae count in time-kill curve” value (64×MIC, time 48) was 3.771 and the “M. pneumoniae count in time-kill curve” value (64×MIC, time 60) was 3.185. The “M. pneumoniae count in time-kill curve” value (64×MIC, time 72) was 2.981.
